Source: patent US20230000876A1, “TREATING CANCERS WITH A CYCLIN-DEPENDENT KINASE INHIBITOR” (Nuvation Bio Inc., priority 2021, published 2023)

Legend:
SK-MEL-3 = assay: Cell viability assay, melanoma cell line SK-MEL-3; type: cell-based
Description: (§1) 4.4.4 Compound Plate (10×) Preparation and Compound Treatment • 10× concentrate compound plate preparation: Add 198 μL of assay medium into each well of the V-bottom plate; then transfer 2 μL of the stock compound solution of each concentration from the stock plate. Add 2 μL of DMSO into the Blank and Control wells. Pipette up and down to mix well. This V-plate is designated as the 10× concentrate compound plate. • For day 0 plate, add 15 μL of the DMSO-medium into the Control wells. The final DMSO concentration was 0.1%. Then directly proceed to cell viability assay. • For assay plate, add 15 μL of the compound-medium of each well from the 10× concentrate compound plate into the cells in 96-well assay plate according to the plate map. Add 15 μL of the DMSO-medium into the Blank and Control wells. The final DMSO concentration was 0.1%. • Return the assay plate into incubator and incubate for 6 days.
The procedures were performed according to the Promega CellTiter-Glo Luminescent Cell Viability Assay Kit manual (Promega-G7573). • The CellTiter-Glo buffer was thawed and equilibrated to room temperature prior to use. • CellTiter-Glo Substrate was equilibrated to room temperature prior to use. • The entire liquid volume of CellTiter-Glo Buffer was transferred into the amber bottle containing CellTiter-Glo Substrate to reconstitute the lyophilized enzyme/substrate mixture. […] Plates were covered with aluminum foil to protect from light. • The contents were mixed for 2 minutes on an orbital shaker to induce cell lysis. • The plate was incubated at room temperature for 20 minutes to stabilize luminescent signal. • Record luminescence on the 2104 EnVision plate reader.
Inhibition rate (IR) of the tested compounds was determined by the following formula: IR (%)=(1−(RLU compound−RLU day0)/(RLU control−RLU day0))*100%. The inhibitions of different dose of compound were calculated in Excel file, and then were used to plot inhibition curves and evaluate related parameters, such as Min (%), Max (%) and GI50. […]

MOLT-4-luc = assay: CellTiter-Glo anti-proliferation assay, MOLT-4-luc; type: cell-based
Description: (§2) The anti-proliferation effect of 2 compounds (the compound of formula (I) and temozolomide) in 7 CNS metastasis cell lines (MOLT-4-luc, Nalm-6-luc, NCI-H460-luc, ACHN-luc2, PC-9-luc, H1975-luc, and KM12-luc) was evaluated.
(§3) The plating of cells and compound treatments are shown below in the plate map (Table 12). One plate was needed for the test of 2 compounds (the compound of formula (I) and temozolomide) in one cell line. The compound of formula (I) was tested from 10 μM, 3-fold serial dilution. Temozolomide was tested from 100 μM, 3-fold serial dilution.
(§4) All the cell lines were maintained in culture conditions at 37° C. in an atmosphere with 5% CO2 in air. The tumor cells were routinely subcultured. The cells growing in an exponential growth phase were harvested and counted for plating.
(§5) Cells were counted by haemocytometer with Trypan blue staining. Next, 135 μL of cell suspension were plated into the assay plates according to the plate map and 135 μL of assay medium into the blank wells. The plates were incubated at 37° C., 5% CO2, 95% air and 100% relative humidity overnight.
as §1
(§6) The procedures were performed according to the Promega CellTiter-Glo Luminescent Cell Viability Assay Kit manual (Promega-G7573). • The CellTiter-Glo buffer was thawed and equilibrated to room temperature prior to use. • CellTiter-Glo Substrate was equilibrated to room temperature prior to use. • The entire liquid volume of CellTiter-Glo Buffer was transferred into the amber bottle containing CellTiter-Glo Substrate to reconstitute the lyophilized enzyme/substrate mixture. This forms the CellTiter-Glo Reagent. • The contents were mixed by gently vortexing to obtain a homogeneous solution. • The plate was equilibrated and its contents to room temperature for approximately 30 minutes. 75 μL (equal to the half volume of culture medium present in each well) CellTiter-Glo • Reagent was added in each well. Plates were covered with aluminum foil to protect from light. • The contents were mixed for 2 minutes on an orbital shaker to induce cell lysis. • The plate was incubated at room temperature for 20 minutes to stabilize luminescent signal. • Record luminescence on the 2104 EnVision plate reader.
(§7) Inhibition rate (IR) of the tested compounds was determined by the following formula: IR (%)=(1−(RLU compound−RLU day0)/(RLU control−RLU day0))*100%. The inhibitions of different dose of compound were calculated in Excel file, and then were used to plot inhibition curves and evaluate related parameters, such as Min (%), Max (%) and GI50. The data were interpreted by GraphPad Prism.

KM12-luc = assay: CellTiter-Glo anti-proliferation assay, KM12-luc; type: cell-based
Description: as §2, §3, §4, §5, §1, §6, §7

[1] = tested on: tumor fragments from a mCRPC patient; assay: Enzalutamide-resistant patient-derived xenograft prostate model (ST2347 PDX); type: in vivo, male Balb/c nude mice
[2] = tested on: U-87MG-luc orthotopic intracranial tumors; assay: U-87MG-luc glioblastoma orthotopic intracranial model, survival; type: in vivo, female BALB/c nude mice
Description: U-87MG-luc cells were derived from U-87MG parental cells acquired from ATCC by stably introducing the gene that encodes the luciferase (luc) protein. The U-87MG-luc cells were cultured at 37° C. in an atmosphere of 5% CO2 in air. The tumor cells were routinely subcultured twice weekly. The cells growing in an exponential growth phase were harvested and counted for tumor inoculation.
3×10^5 U-87MG-luc tumor cells were micro-injected into the right lobe (caudate nucleus) of the brain of each mouse. A total of 94 mice were inoculated. Ten days after cell inoculation, bioluminescence were measured by Xenogen IVIS Lumina II machine, 70 mice were selected and randomly assigned into 7 groups based on bioluminescence intensity and bodyweight. The mice were dosed according to Table 25.

ACHN-luc2 = assay: CellTiter-Glo anti-proliferation assay, ACHN-luc2; type: cell-based
Description: as §2, §3, §4, §5, §1, §6, §7

xMDA-MB-361 breast tumor = xMDA-MB-361 breast tumor model (ER-positive/HER2-positive); type: in vivo, female BALB/c nude mice; conditions: Group 5: Compound (I) 30 mg/kg PO QD*42 days
Description: Trastuzumab, tucatinib, Compound (I), and fulvestrant were tested in a xMDA-MB-361 breast tumor model (ER-positive/HER2-positive) on female BALB/c nude mice.

NCI-H460-luc = assay: CellTiter-Glo anti-proliferation assay, NCI-H460-luc; type: cell-based
Description: as §2, §3, §4, §5, §1, §6, §7

[3] = inhibition rate, 6 days, Compound (I) from 10 μM, temozolomide from 100 μM, 3-fold, 9 points

SMILES: CC(C)N1CCOc2c(F)cc(-c3nc(Nc4ccc(C5CCN(C)CC5)cn4)ncc3F)cc21 [Compound (I), 5-fluoro-4-(8-fluoro-4-isopropyl-3,4-dihydro-2H-benzo[b][1,4]oxazin-6-yl)-N-(5-(1-methylpiperidin-4-yl)pyridin-2-yl)pyrimidin-2-amine]
- GI50 (SK-MEL-3; Homo sapiens, SK-MEL3, read-out: Absolute GI50): 174 nM
- Max (%) (SK-MEL-3; inhibition rate): 111.93%
- Min (%) (SK-MEL-3; inhibition rate): −1.51%
- GI50 (MOLT-4-luc; 144 h, 6 days incubation, read-out: Absolute GI50): 200 nM
- Max (%) (MOLT-4-luc; [3]): 103.5%
- Min (%) (MOLT-4-luc; [3]): −18.4%
- GI50 (KM12-luc; KM12-Luc, 144 h, 6 days incubation, read-out: Absolute GI50): 654 nM
- Max (%) (KM12-luc; [3]): 111.2%
- Min (%) (KM12-luc; [3]): −15.2%
- Antitumor activity over the course of the treatment ([1]; 30 mg/kg oral QD): statistically significant antitumor activity
- Tumor regression ([1]; 30 mg/kg oral QD): tumor regression in all cases
- Mice with 100% reduction in tumor volume ([1]; day 39 of treatment): one
- Mice with >50% reduction in tumor volume ([1]; day 39 of treatment): 3 of 10
- Median survival ([2]; 1 mg/kg PO*QD (vehicle 37 days)): 37 days
- Median survival ([2]; 3 mg/kg PO*QD (vehicle 37 days)): 40.5 days
- Median survival ([2]; 10 mg/kg PO*QD (vehicle 37 days)): 45 days
- Median survival ([2]; 30 mg/kg IV*QW (vehicle 37 days)): 39.5 days
- Median survival ([2]; 30 mg/kg PO*QD (vehicle 37 days)): 56 days
- Survival compared to vehicle treated group ([2]; PO at 10 mg/kg and 30 mg/kg): significantly prolonged survival
- GI50 (ACHN-luc2; ACHN-luc2, 144 h, 6 days incubation, read-out: Absolute GI50): 47 nM
- Max (%) (ACHN-luc2; [3]): 102.9%
- Min (%) (ACHN-luc2; [3]): 6.0%
- Tumor volume (mean ± SEM) (xMDA-MB-361 breast tumor; Day 0): 157 ± 11 mm^3
- Tumor volume (mean ± SEM) (xMDA-MB-361 breast tumor; Day 3): 202 ± 10 mm^3
- Tumor volume (mean ± SEM) (xMDA-MB-361 breast tumor; Day 7): 271 ± 34 mm^3
- Tumor volume (mean ± SEM) (xMDA-MB-361 breast tumor; Day 10): 316 ± 43 mm^3
- Tumor volume (mean ± SEM) (xMDA-MB-361 breast tumor; Day 14): 342 ± 49 mm^3
- Tumor volume (mean ± SEM) (xMDA-MB-361 breast tumor; Day 17): 326 ± 70 mm^3
- Tumor volume (mean ± SEM) (xMDA-MB-361 breast tumor; Day 21): 360 ± 84 mm^3
- Tumor volume (mean ± SEM) (xMDA-MB-361 breast tumor; Day 24): 429 ± 119 mm^3
- Tumor volume (mean ± SEM) (xMDA-MB-361 breast tumor; Day 28): 542 ± 146 mm^3
- Tumor volume (mean ± SEM) (xMDA-MB-361 breast tumor; Day 31): 571 ± 150 mm^3
- Tumor volume (mean ± SEM) (xMDA-MB-361 breast tumor; Day 35): 587 ± 148 mm^3
- Tumor volume (mean ± SEM) (xMDA-MB-361 breast tumor; Day 38): 629 ± 164 mm^3
- Tumor volume (mean ± SEM) (xMDA-MB-361 breast tumor; Day 42): 608 ± 145 mm^3
- GI50 (NCI-H460-luc; NCI-H460-Luc, 144 h, 6 days incubation, read-out: Absolute GI50): 228 nM
- Max (%) (NCI-H460-luc; [3]): 101.1%
- Min (%) (NCI-H460-luc; [3]): 1.9%
